# Reference: patent publication US6358983B1, “Heterocyclically substituted α-hydroxycarboxylic acid derivatives, method for producing the same and their use as endothelin receptor antagonists” (Abbott Laboratories, priority 1997, dated 2002)
# How the values were obtained:
# human ETB receptor = molecular target: T1, human ETB receptor (Homo sapiens, UniProt P24530); assay: ETB receptor binding test ([125I]-ET3, CHO cell membranes); conditions: cloned human ETB receptor, 25 pM [125I]-ET3, 25° C., 30 min
# T1 construct: expressed in transfected cells; host or cells: CHO cells (membrane preparation)
# T1 sequence (P24530 27-442): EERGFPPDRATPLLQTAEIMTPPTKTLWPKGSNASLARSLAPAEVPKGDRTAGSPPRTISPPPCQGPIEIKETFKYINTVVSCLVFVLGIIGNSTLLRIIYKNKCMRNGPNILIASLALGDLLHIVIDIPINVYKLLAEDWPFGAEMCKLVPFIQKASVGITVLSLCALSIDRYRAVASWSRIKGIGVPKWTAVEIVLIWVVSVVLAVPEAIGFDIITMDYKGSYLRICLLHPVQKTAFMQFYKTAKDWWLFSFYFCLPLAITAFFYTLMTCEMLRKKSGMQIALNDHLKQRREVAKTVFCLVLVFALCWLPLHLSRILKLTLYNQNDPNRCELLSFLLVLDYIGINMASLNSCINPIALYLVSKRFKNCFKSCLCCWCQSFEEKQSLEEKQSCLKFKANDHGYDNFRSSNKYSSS
# Method: (§1) For binding studies, cloned human ETA or ETB receptor-expressing CHO cells were employed.
# (§2) The ETA or ETB receptor-expressing CHO cells were proliferated in DMEM NUT MIX F12 medium (Gibco, No. 21331-020) using 10% fetal calf serum (PAA Laboratories GmbH, Linz, No. A15-022), 1 mM glutamine (Gibco No. 25030-024), 100 U/ml of penicillin and 100 μg/ml of streptomycin (Gibco, Sigma No P-0781). After 48 hours, the cells were washed with PBS and incubated at 37° C. for 5 minutes with 0.05% trypsin-containing PBS. Neutralization with medium was then carried out and the cells were collected by centrifugation at 300×g.
# (§3) For the membrane preparation, the cells were adjusted to a concentration of 10^8 cells/ml of buffer (50 mM tris·HCL buffer, pH 7.4) and then disintegrated by means of ultrasound Branson Sonifier 250, 40-70 seconds/constant/output [sic] 20).
# (§4) For the ETA and ETB receptor binding test, the membranes were suspended in incubation buffer (50 mM tris HCl, pH 7.4 with 5 mM MnCl2, […] of bacitracin and 0.2% BSA) in a concentration of 50 μg of protein per test batch and incubated at 25° C. with 25 pM [125I]-ET1 (ETA receptor test) or 25 pM [125I]-ET3 (ETB receptor test) in the presence or absence of test substance. The nonspecific binding was determined with 10^−7 M ET1. After 30 min, the free and the bound -radioligand were separated by filtration through GF/B glass fiber filters (Whatman, England) on a Skatron cell collector (Skatron, Lier, Norway) and the filters were washed with ice-cold tris HCl buffer, pH 7.4 with 0.2% BSA.
# (§5) The radioactivity collected on the filters was quantified using a Packard 2200 CA liquid scintillation counter.
# (§6) According to the binding test described above, receptor binding data were measured for the compounds shown below.
# human ETA receptor = molecular target: T2, human ETA receptor (Homo sapiens, UniProt P25101); assay: ETA receptor binding test ([125I]-ET1, CHO cell membranes); conditions: cloned human ETA receptor, 25 pM [125I]-ET1, 25° C., 30 min
# T2 construct: expressed in transfected cells; host or cells: CHO cells (membrane preparation)
# T2 sequence (P25101 21-427): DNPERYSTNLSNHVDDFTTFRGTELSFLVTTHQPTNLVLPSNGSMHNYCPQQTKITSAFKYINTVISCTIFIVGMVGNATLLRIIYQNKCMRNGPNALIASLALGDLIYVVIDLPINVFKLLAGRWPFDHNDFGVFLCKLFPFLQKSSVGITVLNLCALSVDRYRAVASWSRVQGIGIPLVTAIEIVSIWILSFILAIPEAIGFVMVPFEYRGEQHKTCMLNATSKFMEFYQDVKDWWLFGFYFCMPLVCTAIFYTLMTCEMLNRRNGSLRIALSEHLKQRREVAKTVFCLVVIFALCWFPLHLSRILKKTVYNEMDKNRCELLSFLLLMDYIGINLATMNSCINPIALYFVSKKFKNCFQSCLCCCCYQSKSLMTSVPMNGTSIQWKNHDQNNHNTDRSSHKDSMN
# Method: as §1, §2, §3, §4, §5, §6
Structure (SMILES),Ki (human ETB receptor),Ki (human ETA receptor)
"COC(c1ccccc1)(c1ccccc1)[C@H](Oc1nc(C)c(C)s1)C(=O)O [Compound I-1, (S)-2-(4,5-Dimethylthiazol-2-yloxy)-3-methoxy-3,3-diphenyl-propionic Acid]",650 nM,13 nM
"COC(c1ccccc1)(c1ccccc1)[C@H](Oc1nc(C)c(C)o1)C(=O)O [Compound I-4, (S)-2-(4,5-Dimethyloxazol-2-yloxy)-3-methoxy-3,3-diphenyl-propionic Acid]",3100 nM,29 nM
"COC(c1ccccc1)(c1ccccc1)[C@H](Oc1nc2c(s1)CCC2)C(=O)O [Compound I-5, (S)-2-(4,5-Cyclopentenothiazol-2-yloxy)-3-methoxy-3,3-diphenyl-propionic Acid]",> 700 nM,50 nM
"COC(c1ccccc1)(c1ccccc1)[C@H](Oc1nc2ccccc2s1)C(=O)O [Compound I-6, (S)-2-(Benzothiazol-2-yloxy)-3-methoxy-3,3-diphenylpropionic Acid]",> 7100 nM,900 nM
"COc1ccc(CCOC(c2ccccc2)(c2ccccc2)C(Oc2nc(C)c(C)s2)C(=O)O)cc1OC (stereo not drawn) [Compound I-13, 2-(4,5-Dimethylthiazol-2-yloxy)-3-(2-(3,4-dimethoxyphenyl)-ethoxy)-3,3-diphenylpropionic Acid]",210 nM,145 nM
"COc1ccc(CCOC(c2ccccc2)(c2ccccc2)C(Oc2nc(C)c(C)o2)C(=O)O)cc1OC (stereo not drawn) [Compound I-15, 2-(4,5-Dimethyloxazol-2-yloxy)-3-(2-(3,4-dimethoxyphenyl)-ethoxy)-3,3-diphenylpropionic Acid]",485 nM,215 nM
